Common to all, as to type: cell-based
For assay [1], the system named is HER3-ss+4aa/Gaussia Luciferase. Nature of the assay: Dox-Induced Her3-ss-Gluc Assay. The note with it: 293FRT/TO cells, read-out: 24 hr Dox Inducible Her3(ss + 4)Gluc 293FRT/TO: Mean IC50. In a few lines:
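Stable T-REx cell line carrying a doxycycline-regulated HER3-ss+4aa/Gaussia luciferase insert, plated the day before assay. Compound dilutions in DMSO/media with doxycycline added, then incubated at 37° C., 5% CO2. Stereoisomer mixtures tested where stereochemistry is not drawn.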

The subject of assay [2] is TNFα-FL/Gaussia Luciferase. In words: Dox Induced TNFα-FL-Gluc Assay. The note with it: 293FRT/TO cells, read-out: 24 hr Dox Inducible TNFaFLGluc 293FRT/TO: Mean IC50. In a few lines: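 A stable T-REx cell line carrying doxycycline-inducible TNFα-FL/Gaussia luciferase was plated the day before assay. Compound dilutions in DMSO/media containing doxycycline were then added and incubated at 37° C, 5% CO2.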

Assay [3] concerns PD1-ss+10aa/Gaussia Luciferase. In words: Dox-Induced PD1-ss-Gluc Assay. The note with it: 293FRT/TO cells, read-out: 24 hr Dox Inducible PD1ssGluc 293FRT/TO: Mean IC50. A digest of the protocol:
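Stable cell line carrying PD1-ss+10aa/Gaussia luciferase cDNA under T-REx (doxycycline-inducible) control, plated the day before assay. Compound dilutions in DMSO/media containing doxycycline added and incubated at 37° C, 5% CO2. Undefined stereocentres: data refer to stereoisomer mixtures.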

The subject of assay [4] is human multiple myeloma cell line NCI-H929. In words: H929 Cell Viability Assay. The note with it: 48 hr, NCI-H929 cells, Celltiter-Glo, read-out: 48 hr H929 Viability Celltiter-Glo: Mean EC50. As for the experimental part:
Plates were incubated at 37° C., 5% CO2 for 48 hours. After 48 hours, Celltiter-Glo® (Promega) was added to each well and luciferase signal was quantified using Tecan Infinite M1000 Pro for cell viability determination.
For chemical structures that include one or more stereoisomers, but are illustrated without indicating stereochemistry, the assay data refers to a mixture of stereoisomers.

Assay [5] concerns IL-2-FL/Gaussia Luciferase. Nature of the assay: Dox Induced IL2-FL-Gluc Assay. The note with it: 293FRT/TO cells, read-out: 24 hr Dox Inducible IL2FLGIuc 293FRT/TO: Mean IC50. A digest of the protocol:
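Stable T-REx cell line expressing doxycycline-inducible IL-2-FL/Gaussia luciferase cDNA, plated the day before assay. Compound dilutions in DMSO/media containing doxycycline added and incubated at 37° C., 5% CO2. Unspecified stereochemistry means data refer to a stereoisomer mixture.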

Assay [6] concerns human multiple myeloma cell line U266B1. In words: U266 Cell Viability Assay. The note with it: U-266, 48 hr, U266B1 cells, Celltiter-Glo, read-out: 48 hr U266 Viability Celltiter-Glo: Mean EC50. In a few lines: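 U266B1 myeloma cells treated with compound dilutions in DMSO/media for 48 h at 37 °C, 5% CO2. Viability read by CellTiter-Glo luminescence. Stereochemically undefined structures were tested as stereoisomer mixtures.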

Setting [7] is: 24 hr doxycycline induction, Gaussia luciferase signal.

The values below come from patent publication US20220153732A1, “PROTEIN SECRETION INHIBITORS” (KEZAR LIFE SCIENCES, priority 2019, published 2022).

Read-outs that look alike come from different tables or passages of the source.

One may read the EC50 as the midpoint of the concentration-response curve. For the compound `O=C(Nc1nc(/C=C/c2ccc(C(F)(F)F)cn2)cs1)c1cccn1Cc1ccncc1` [Compound A343], the IC50 in assay [1] (24 hr, doxycycline-induced) was determined as 0.492 µM; in assay [2] (24 hr, doxycycline-induced) it was 3.62 µM; in assay [3] (24 hr, doxycycline-induced), 0.017 µM; in assay [5] (24 hr, doxycycline-induced) it was 1.15 µM. Besides, the half-maximal effective concentration (EC50) came out at 7.18 µM in assay [4] and 15.9 µM in assay [6].

For the compound `O=C(Nc1nc(N2CCCCC2)cs1)c1cccn1Cc1ccncc1` [Compound A264], the IC50 in assay [1] (setting [7]), in assay [2] (setting [7]), in assay [3] (setting [7]) and in assay [5] (setting [7]) was over 25 µM in each case. Besides, the EC50 in assay [4] and in assay [6] was over 25 µM in each case.

As to `O=C(Nc1nc([C@H]2C[C@@H](Oc3ccccc3)C2)cs1)c1cccn1Cc1ccncc1` [Compound A330], the IC50 came to 0.475 µM in assay [1] (24 hr, doxycycline-induced); 3.92 µM in assay [2] (24 hr, doxycycline-induced); 0.218 µM in assay [3] (24 hr, doxycycline-induced); 1.02 µM in assay [5] (24 hr, doxycycline-induced). The EC50 in assay [4] is 19.2 µM; in assay [6], over 25 µM.

For `O=C(Nc1nc([C@H]2CC[C@H]2c2ccccc2)cs1)c1cccn1Cc1ccncc1` [Compound A324], the IC50 in assay [1] (24 hr, doxycycline-induced) was 0.582 µM; in assay [2] (24 hr, doxycycline-induced), 3.01 µM; in assay [3] (24 hr, doxycycline-induced), 0.289 µM; in assay [5] (24 hr, doxycycline-induced), 0.475 µM. Further, the EC50 in assay [4] was 11.3 µM; in assay [6] it was over 25 µM.

On to `CC(C)OC(C)(C)c1csc(NC(=O)Cc2ccc(Cc3ccncc3)[nH]2)n1` [Compound B12, N-(4-(2-isopropoxypropan-2-yl)thiazol-2-yl)-2-(5-(pyridin-4-ylmethyl)-1H-pyrrol-2-yl)acetamide], for which the IC50 in assay [1] (24 hr, doxycycline-induced) is over 25 µM; in assay [2] (24 hr, doxycycline-induced) it was over 25 µM; in assay [3] (24 hr, doxycycline-induced), over 25 µM; in assay [5] (24 hr, doxycycline-induced) it was over 25 µM. Moreover, the EC50 in assay [4] and in assay [6] was over 25 µM throughout.

`CC(C)OCc1csc(NC(=O)c2cccn2Cc2ccncc2)n1` [Compound A59, N-(4-(isopropoxymethyl)thiazol-2-yl)-1-(pyridin-4-ylmethyl)-1H-pyrrole-2-carboxamide]: the IC50 came out at 11.9 µM in assay [1] (setting [7]), 16.6 µM in assay [2] (setting [7]), 1.51 µM in assay [3] (setting [7]) and 3.62 µM in assay [5] (setting [7]). Besides, the EC50 in assay [4] and in assay [6] was over 25 µM in each case.

For the compound `O=C(Nc1nc([C@@H]2CCN(Cc3ccccc3)C2)cs1)c1cccn1Cc1ccncc1` [Compound A291], the IC50 in assay [1] (setting [7]) was 5.28 µM; in assay [2] (setting [7]), over 25 µM; in assay [3] (setting [7]), 0.918 µM; in assay [5] (setting [7]) it was 6.72 µM. For the same compound, the values for the EC50 in assay [4] and in assay [6] were over 25 µM and 22.5 µM, respectively.

Take `CC(C)OC(C)(C)c1csc(NC(=O)c2ccccc2Cc2ccncc2)n1` [Compound A280, N-(4-(2-isopropoxypropan-2-yl)thiazol-2-yl)-2-(pyridin-4-ylmethyl)benzamide]: the IC50 was over 25 µM in assay [1] (setting [7]), over 25 µM in assay [2] (setting [7]), 12.7 µM in assay [3] (setting [7]) and over 25 µM in assay [5] (setting [7]). The half-maximal effective concentration (EC50) in assay [4] and in assay [6] was over 25 µM each time.

For the compound `O=C(Nc1nc2c(s1)CCC2)c1cccn1Cc1ccncc1` [Compound A56], the IC50 in assay [1] (setting [7]) was 5.31 µM; in assay [2] (setting [7]), over 25 µM; in assay [3] (setting [7]), 1.42 µM; in assay [5] (setting [7]), 6.47 µM. The concentration for a half-maximal effect (EC50) in assay [4] and in assay [6] was over 25 µM in each case.

In the case of `CNC(=O)c1cnc(NC(=O)c2cccn2Cc2ccncc2)s1` [Compound B16], the IC50 in assay [1] (24 hr, doxycycline-induced) was over 25 µM; in assay [2] (24 hr, doxycycline-induced), over 25 µM; in assay [3] (24 hr, doxycycline-induced) it was over 25 µM; in assay [5] (24 hr, doxycycline-induced), over 25 µM. Moreover, the EC50 in assay [4] and in assay [6] was over 25 µM throughout.

In the case of `CC(C)OC(C)(C)c1csc(NC(=O)c2ccc(C(N)=O)n2Cc2ccncc2)n1` [Compound A105, N-(4-(2-isopropoxypropan-2-yl)thiazol-2-yl)-1-(pyridin-4-ylmethyl)-1H-pyrrole-2,5-dicarboxamide], the IC50 in assay [1] (setting [7]), in assay [2] (setting [7]), in assay [3] (setting [7]) and in assay [5] (setting [7]) was over 25 µM in each case. Moreover, the 50% effective concentration (EC50) in assay [4] and in assay [6] was over 25 µM each time.

In the case of `O=C(Nc1nc(C2[C@@H](O)CCN2c2ccccc2)cs1)c1cccn1Cc1ccncc1` (stereo partly drawn) [Compound A344], the IC50 in assay [1] (24 hr, doxycycline-induced) is 2.03 µM; in assay [2] (24 hr, doxycycline-induced), 8.86 µM; in assay [3] (24 hr, doxycycline-induced) it was 0.971 µM; in assay [5] (24 hr, doxycycline-induced) it was 1.35 µM. The EC50 in assay [4] and in assay [6] was over 25 µM in each case.

`COc1ccc(/C=C/c2csc(NC(=O)c3cccn3Cc3ccncc3)n2)nc1` [Compound A269, N-(4-(2-(5-methoxypyridin-2-yl)vinyl)thiazol-2-yl)-1-(pyridin-4-ylmethyl)-1H-pyrrole-2-carboxamide]: the IC50 in assay [1] (setting [7]) stood at 1.57 µM; in assay [2] (setting [7]) it was 20.3 µM; in assay [3] (setting [7]) it was 0.013 µM; in assay [5] (setting [7]), 2.92 µM. Also, the values for the EC50 in assay [4] and in assay [6] were over 21.6 µM and over 25 µM, respectively.

As to `CC(C)OC(C)(C)c1csc(NC(=O)c2cccn2Cc2ccccc2)n1` [Compound A79, 1-benzyl-N-(4-(2-isopropoxypropan-2-yl)thiazol-2-yl)-1H-pyrrole-2-carboxamide], the IC50 was 5.26 µM in assay [1] (setting [7]), over 25 µM in assay [2] (setting [7]), 3.18 µM in assay [3] (setting [7]) and 4.15 µM in assay [5] (setting [7]). The EC50 is 24.9 µM in assay [4] and over 25 µM in assay [6].

Turning to `O=C(Nc1nc([C@H]2C[C@H](c3ccccn3)C2)cs1)c1cccn1Cc1ccncc1` [Compound A350], the IC50 in assay [1] (24 hr, doxycycline-induced) was 2.39 µM; in assay [2] (24 hr, doxycycline-induced), 14.9 µM; in assay [3] (24 hr, doxycycline-induced), 0.707 µM; in assay [5] (24 hr, doxycycline-induced), over 25 µM. For the same compound, the EC50 in assay [4] and in assay [6] was over 25 µM in each case.

In the case of `O=C(Nc1ncc(CCO)s1)c1cccn1Cc1ccncc1` [Compound A119], the IC50 in assay [1] (setting [7]), in assay [2] (setting [7]), in assay [3] (setting [7]) and in assay [5] (setting [7]) was over 25 µM in each case. The EC50 in assay [4] and in assay [6] was over 25 µM throughout.

For `O=C(Nc1nc(/C=C/c2ccccn2)cs1)c1cccn1Cc1ccncc1` [Compound A164], the IC50 in assay [1] (setting [7]) amounted to 8.4 µM; in assay [2] (setting [7]), 23.7 µM; in assay [3] (setting [7]), 0.098 µM; in assay [5] (setting [7]), 6.77 µM. The EC50 in assay [4] is 17.7 µM; in assay [6] it was over 25 µM.

Consider `O=C(Nc1nc(C2CC2c2ccccc2)cs1)c1cccn1CCCc1ccncc1` [Compound A215, N-(4-((1R,2R)-2-phenylcyclopropypthiazol-2-yl)-1-(3-(pyridin-4-yl)propyl)-1H-pyrrole-2-carboxamide], for which the IC50 in assay [1] (setting [7]) was found to be 0.72 µM; in assay [2] (setting [7]), 2.49 µM; in assay [3] (setting [7]), 0.443 µM; in assay [5] (setting [7]), 1.25 µM. In addition, the EC50 is 13.1 µM in assay [4] and over 25 µM in assay [6].

Consider `CCc1csc(NC(=O)c2cccn2Cc2ccncc2)n1` [Compound A35, N-(4-ethylthiazol-2-yl)-1-(pyridin-4-ylmethyl)-1H-pyrrole-2-carboxamide], for which the IC50 in assay [1] (setting [7]) was 1.94 µM; in assay [2] (setting [7]), over 25 µM; in assay [3] (setting [7]), 0.692 µM; in assay [5] (setting [7]), 2.3 µM. Further, the 50% effective concentration (EC50) in assay [4] and in assay [6] was over 25 µM each time.

In the case of `O=C(Nc1nc(/C=C/c2ccc(F)cc2)cs1)c1cccn1Cc1ccncc1` [Compound A220, N-(4-(4-fluorostyryl)thiazol-2-yl)-1-(pyridin-4-ylmethyl)-1H-pyrrole-2-carboxamide], the IC50 in assay [1] (setting [7]) is 0.329 µM; in assay [2] (setting [7]), 3.75 µM; in assay [3] (setting [7]), 0.086 µM; in assay [5] (setting [7]), 0.628 µM. Further, the EC50 in assay [4] and in assay [6] was over 25 µM in each case.
